Source: patent US10941158B2, “Pyrazole ACC inhibitors and uses thereof” (Gilead Apollo, LLC, priority 2015, dated 2021)
In brackets after ≈: the same amount, converted by molar mass. Like-named read-outs stand apart in the source and are kept apart here.

How the values were obtained:
[1] = system: Diplodia maydis (Dm); test: Growth inhibition assay of fungal pathogens; format: cell-based; conditions: Stenocarpella maydis, 48 h, read-out: Concentration at 90% Inhibition Dm
Method: (§1) Compounds of the present invention were evaluated in a growth inhibition assay to determine the ability to control the growth of fungal pathogens, such as Botrtyis cinerea (Bc), Collectotrichum graminicola (Cg). Diplodia maydis (Dm), Fusarium moniliforme (Fm), Fusarium virguliforme (Fv), Phytophthora capsici (Pc), Rhizoctonia solani (Rs), and Septoria tritici (St). Compounds to be tested were dissolved in DMSO at 2.5 mg/ml to produce compound stock solutions (“stocks”). Stocks were diluted with DMSO by a five-fold dilution in a 96-well stock plate, and two sets of final concentrations of 50, 10, and 2 ppm or 2, 0.4, and 0.08 ppm were obtained in vitro. A set of positive controls was also prepared, with various concentrations of Soraphen (2, 0.4, and 0.08 ppm), Metalaxyl (1.1, 0.22, and 0.04 ppm), and Metconazole (2, 0.4, and 0.08 ppm or 0.2, 0.04, and 0.008 ppm) after the five-fold dilutions. Negative controls on each plate included 2% DMSO, water, and a blank (media+2% DMSO). Fungal spores were isolated from previously sub-cultured plates of Botrtyis cinerea (Bc). Collectotrichum graminicola (Cg). Diplodia maydis (Dm), Fusarium moniliforme (Fm), Fusarium virguliforme (Fv), Phytophthora capsici (Pc), and Septoria tritici (St). The isolated spores were diluted to individual concentrations with a 17% V8 liquid media. For Rhizoctonia solani (Rs) and Pythium irregulare, 1.5 mm mycelial plugs were used in place of spores and ¼ Potato Dextrose Broth (PDB) was used for dilution. The spore concentrations and plug sizes were based on growth curves generated at 48 hours for each pathogen. In a second 96-well plate, the spores or mycelial plugs, media, diluted compound solutions, and controls were combined. Once the compound was added, a true final concentration of compound in each well was measured by an OD600 reading, which adjusted for any compound precipitation that might have occurred in the well. Plate readings were repeated at both 24 and 48 hours. The blank negative control was used as a background subtraction. Additional visual ratings were performed at both 24 and 48 hours for checking on precipitation and confirming efficacy. Visual and OD600 ratings of the compounds at 48 hours were compared to the 2% DMSO negative control, and the percent of pathogen growth inhibition was determined based on those values.

[2] = system: Rhizoctonia solani (Rs); test: Growth inhibition assay of fungal pathogens; format: cell-based; conditions: 48 h, read-out: Concentration at 90% Inhibition Rs
Method: as §1

[3] = system: Phytophthora capsici (Pc); test: Growth inhibition assay of fungal pathogens; format: cell-based; conditions: 48 hours; for IC90: Phytophthora capsici, read-out: Concentration at 90% Inhibition Pc
Method: as §1

[4] = system: Collectotrichum graminicola (Cg); test: Growth inhibition assay of fungal pathogens; format: cell-based; conditions: 48 h, read-out: Concentration at 90% Inhibition Cg
Method: as §1

[5] = system: Fusarium virguliforme (Fv); test: Growth inhibition assay of fungal pathogens; format: cell-based; conditions: 48 h, 48 hours, read-out: Concentration at 90% Inhibition Fv
Method: as §1

[6] = system: Septoria tritici (St); test: Growth inhibition assay of fungal pathogens; format: cell-based; conditions: 48 hours; for IC90: Zymoseptoria tritici, read-out: Concentration at 90% Inhibition St
Method: as §1

[7] = system: Botrtyis cinerea (Bc); test: Growth inhibition assay of fungal pathogens; format: cell-based; conditions: 48 h, read-out: Concentration at 90% Inhibition Bc
Method: as §1

[8] = system: Fusarium moniliforme (Fm); test: Growth inhibition assay of fungal pathogens; format: cell-based; conditions: Fusarium verticillioides, 48 h, 48 hours, read-out: Concentration at 90% Inhibition Fm
Method: as §1

[9] = biological target: human (hACC2) ACC2 (Homo sapiens, UniProt O00763); test: In vitro Acetyl-CoA Carboxylase (ACC) inhibition assay (ADP-Glo), hACC2; format: biochemical
Method: The detailed procedure is as follows. […] 10 μL ADP glo reagent was added. […] 20 μL kinase detection reagent was added.
“NA” stands for “not assayed.”

[10] = system: C. parapsilosis ATCC 22019; test: Anti-Fungal (Candida) Activity Assay, broth microtiter MIC; format: cell-based; conditions: Lodderomyces parapsilosis, ATCC22019; 3 replicates, MIC recorded at 48 h; read-out: MIC C. parapsilosis ATCC 22019
Method: (§2) Compounds of the present invention were evaluated in an Anti-Fungal Activity Assay. An exemplary procedure for the assay, which measures the susceptibility of various Candida species to anti-fungal compounds, follows. Compounds to be tested (including fluconazole and amphotericin B) were dissolved in DMSO to obtain a solution having a concentration of 1 mg/mL. […] All species were grown from frozen stock by directly plating on to freshly prepared Sabouraud Dextrose agar (BD, Difco) and incubated overnight in ambient air at 35° C. for 24 h. A direct suspension was prepared in RPMI 1640+MOPS (Lonza, Biowhittaker) by taking individual colonies from the overnight cultures using sterile swabs soaked in sterile saline. The concentration of the suspension was determined using pre-determined standard curves. […] Broth microtiter MIC challenge plates were prepared following CLSI guidelines (M27-A3, Vol. 28 No. 14). The original CLSI guidelines focused on reading Candida MICs after 48 h of incubation. As reading after only 24 h offers a clear advantage of patient care, QC limits are being established for all drugs at 24 h. That being said there are no known interpretive breakpoints for amphotericin B at 24 h and the current fluconazole interpretive breakpoints are based on a 48 h reading. The MIC for the test compounds were recorded at 48 h. All MIC determinations were achieved by visually comparing the growth found in the antibiotic challenged wells to that of the growth control.

[11] = system: C. albicans ATCC 90028; test: as above; format: cell-based; conditions: ATCC90028, 3 replicates, MIC recorded at 48 h, read-out: MIC C. albicans ATCC 90028
Method: as §2

[12] = system: C. krusei ATCC 6258; test: as above; format: cell-based; conditions: Pichia kudriavzevii, ATCC6258; 3 replicates, MIC recorded at 48 h; read-out: MIC C. krusei ATCC 6258
Method: as §2

Sequence of human (hACC2) ACC2 (O00763 whole entry): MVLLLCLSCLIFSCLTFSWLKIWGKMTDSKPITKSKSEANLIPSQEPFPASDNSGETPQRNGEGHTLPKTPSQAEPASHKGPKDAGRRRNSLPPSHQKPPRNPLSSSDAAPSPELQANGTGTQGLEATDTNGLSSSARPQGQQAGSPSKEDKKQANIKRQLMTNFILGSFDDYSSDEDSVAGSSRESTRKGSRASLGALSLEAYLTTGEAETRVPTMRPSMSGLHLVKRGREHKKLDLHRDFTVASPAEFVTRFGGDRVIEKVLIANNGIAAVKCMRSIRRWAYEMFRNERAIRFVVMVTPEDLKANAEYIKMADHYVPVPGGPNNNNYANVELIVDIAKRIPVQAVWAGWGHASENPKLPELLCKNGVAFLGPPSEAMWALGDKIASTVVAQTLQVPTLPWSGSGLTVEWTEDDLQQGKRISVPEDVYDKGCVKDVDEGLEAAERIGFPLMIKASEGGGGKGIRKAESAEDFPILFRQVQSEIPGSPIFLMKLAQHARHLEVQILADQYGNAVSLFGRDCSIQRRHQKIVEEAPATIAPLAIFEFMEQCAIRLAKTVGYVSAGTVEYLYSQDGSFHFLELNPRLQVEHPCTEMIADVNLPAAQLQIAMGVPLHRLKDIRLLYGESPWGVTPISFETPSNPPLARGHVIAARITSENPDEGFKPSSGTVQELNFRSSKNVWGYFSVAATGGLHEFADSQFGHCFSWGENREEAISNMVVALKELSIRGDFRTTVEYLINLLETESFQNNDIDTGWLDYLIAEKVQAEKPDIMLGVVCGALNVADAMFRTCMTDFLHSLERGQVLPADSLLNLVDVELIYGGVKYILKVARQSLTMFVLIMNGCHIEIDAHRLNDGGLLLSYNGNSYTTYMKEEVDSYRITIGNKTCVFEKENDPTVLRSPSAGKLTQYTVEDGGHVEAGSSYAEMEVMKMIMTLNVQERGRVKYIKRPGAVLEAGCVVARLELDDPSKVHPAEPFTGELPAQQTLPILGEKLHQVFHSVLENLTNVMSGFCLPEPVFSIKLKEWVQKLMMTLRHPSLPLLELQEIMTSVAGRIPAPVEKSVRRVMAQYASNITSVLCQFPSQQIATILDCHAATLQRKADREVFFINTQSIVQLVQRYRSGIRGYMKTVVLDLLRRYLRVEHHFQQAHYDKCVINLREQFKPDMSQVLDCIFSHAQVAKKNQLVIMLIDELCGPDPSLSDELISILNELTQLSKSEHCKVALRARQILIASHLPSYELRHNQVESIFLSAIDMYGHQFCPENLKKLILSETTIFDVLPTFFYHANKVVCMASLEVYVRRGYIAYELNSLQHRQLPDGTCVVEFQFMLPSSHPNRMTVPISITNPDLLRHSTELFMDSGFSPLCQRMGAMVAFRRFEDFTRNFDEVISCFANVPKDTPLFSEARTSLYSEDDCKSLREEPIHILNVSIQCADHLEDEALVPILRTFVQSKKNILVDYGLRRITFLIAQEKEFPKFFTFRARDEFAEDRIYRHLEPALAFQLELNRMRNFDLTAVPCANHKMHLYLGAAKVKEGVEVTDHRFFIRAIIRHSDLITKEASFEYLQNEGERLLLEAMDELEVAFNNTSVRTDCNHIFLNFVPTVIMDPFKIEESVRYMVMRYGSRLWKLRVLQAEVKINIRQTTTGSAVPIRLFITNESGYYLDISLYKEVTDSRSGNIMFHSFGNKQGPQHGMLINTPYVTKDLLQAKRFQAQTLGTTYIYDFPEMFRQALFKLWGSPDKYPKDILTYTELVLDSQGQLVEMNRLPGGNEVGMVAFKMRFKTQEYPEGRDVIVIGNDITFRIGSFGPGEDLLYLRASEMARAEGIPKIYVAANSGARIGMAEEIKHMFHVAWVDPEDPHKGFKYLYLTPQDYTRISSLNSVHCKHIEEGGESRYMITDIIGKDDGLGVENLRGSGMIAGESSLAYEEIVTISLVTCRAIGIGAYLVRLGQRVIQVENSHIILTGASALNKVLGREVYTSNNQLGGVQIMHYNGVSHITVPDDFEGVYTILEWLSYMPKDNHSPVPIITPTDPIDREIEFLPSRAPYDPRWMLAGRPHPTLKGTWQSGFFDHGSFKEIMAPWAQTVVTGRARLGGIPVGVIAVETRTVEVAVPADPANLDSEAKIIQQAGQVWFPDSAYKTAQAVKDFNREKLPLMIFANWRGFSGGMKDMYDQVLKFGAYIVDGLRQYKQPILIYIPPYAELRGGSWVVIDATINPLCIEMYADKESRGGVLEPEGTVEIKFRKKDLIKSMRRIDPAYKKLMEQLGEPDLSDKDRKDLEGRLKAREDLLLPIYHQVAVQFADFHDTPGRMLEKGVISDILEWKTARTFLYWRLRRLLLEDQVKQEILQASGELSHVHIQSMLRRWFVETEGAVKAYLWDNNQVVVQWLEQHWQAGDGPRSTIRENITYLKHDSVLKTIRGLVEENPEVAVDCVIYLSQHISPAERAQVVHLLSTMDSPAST

SMILES | IC50 [9] | MIC [10] | IC90 ([1]; Table 4a) | IC90 ([1]; Table 4b) | IC90 ([2]; Table 4a) | IC90 ([2]; Table 4b) | IC90 ([3]; Table 4a) | Concentration at 90% Inhibition Pc ([3]; Table 4b) | IC90 ([4]; Table 4a) | IC90 ([4]; Table 4b) | IC90 ([5]; Table 4a) | IC90 ([5]; Table 4b) | Concentration at 90% Inhibition St ([6]; Table 4b) | IC90 ([6]; Table 4a) | IC90 ([7]; Table 4a) | IC90 ([7]; Table 4b) | IC90 ([8]; Table 4a) | IC90 ([8]; Table 4b) | IC90 ([3]; Table 4b) | IC90 ([6]; Table 4b) | other results
COc1ccc(F)cc1[C@H](Cn1c(=O)n(C(C)(C)C(=O)N2CCOCC2)c(=O)c2c(C)c(-n3cccn3)sc21)OC(C)C [Compound I-3, (R)-1-(2-(5-fluoro-2-methoxyphenyl)-2-isopropoxyethyl)-5-methyl-3-(2-methyl-1-morpholino-1-oxopropan-2-yl)-6-(1H-pyrazol-1-yl)thieno[2,3-d]pyrimidine-2,4(1H,3H)-dione] | 10 to 40 nM | > 4.1 µg/mL | > 50 µg/mL | 10 µg/mL (≈ 16.3 µM) | > 50 µg/mL | > 50 µg/mL | > 50 µg/mL | D (“D” provided a compound concentration of >50 ppm at 90% inhibition of fungal pathogens) | > 50 µg/mL | > 50 µg/mL | 2 µg/mL (≈ 3.26 µM) | 2 µg/mL (≈ 3.26 µM) | D (“D” provided a compound concentration of >50 ppm at 90% inhibition of fungal pathogens) | > 50 µg/mL | > 50 µg/mL | 10 µg/mL (≈ 16.3 µM) | 2 µg/mL (≈ 3.26 µM) | 2 µg/mL (≈ 3.26 µM) |  |  | MIC [11]: > 4.1 µg/mL; MIC [12]: 2.1 to 4 µg/mL (≈ 3.42 to 6.52 µM)
COc1ccc(F)cc1[C@H](Cn1c(=O)n(C(C)(C)C(N)=O)c(=O)c2c(C)c(-n3cccn3)sc21)OC1CCOCC1 [Compound I-4, (R)-2-(1-(2-(5-fluoro-2-methoxyphenyl)-2-((tetrahydro-2H-pyran-4-yl)oxy)ethyl)-5-methyl-2,4-dioxo-6-(1H-pyrazol-1-yl)-1,4-dihydrothieno[2,3-d]pyrimidin-3(2H)-yl)-2-methylpropanamide] | 10 to 40 nM | > 4.1 µg/mL | > 50 µg/mL | > 50 µg/mL | > 50 µg/mL | > 50 µg/mL | > 50 µg/mL | D (“D” provided a compound concentration of >50 ppm at 90% inhibition of fungal pathogens) | > 50 µg/mL | 10 µg/mL (≈ 17.1 µM) | > 50 µg/mL | > 50 µg/mL | D (“D” provided a compound concentration of >50 ppm at 90% inhibition of fungal pathogens) | > 50 µg/mL | 2 µg/mL (≈ 3.41 µM) | 2 µg/mL (≈ 3.41 µM) | 2 µg/mL (≈ 3.41 µM) | 2 µg/mL (≈ 3.41 µM) |  |  | MIC [11]: > 4.1 µg/mL; MIC [12]: 2.1 to 4 µg/mL (≈ 3.59 to 6.83 µM)
COc1ccc(F)cc1[C@H](Cn1c(=O)n(C(C)(C)C(N)=O)c(=O)c2c(C)c(-n3cccn3)sc21)O[C@H]1CC[C@@H](O)CC1 [Compound I-5, 2-(1-((R)-2-(5-fluoro-2-methoxyphenyl)-2-(((s,4S)-4-hydroxycyclohexyl)oxy)ethyl)-5-methyl-2,4-dioxo-6-(1H-pyrazol-1-yl)-1,4-dihydro-thieno[2,3-d]pyrimidin-3(2H)-yl)-2-methylpropanamide] | 3 to 10 nM | 2.1 to 4 µg/mL (≈ 3.5 to 6.67 µM) | > 50 µg/mL | 10 µg/mL (≈ 16.7 µM) | > 50 µg/mL | 10 µg/mL (≈ 16.7 µM) | > 50 µg/mL | D (“D” provided a compound concentration of >50 ppm at 90% inhibition of fungal pathogens) | > 50 µg/mL | > 50 µg/mL | > 50 µg/mL | 10 µg/mL (≈ 16.7 µM) | D (“D” provided a compound concentration of >50 ppm at 90% inhibition of fungal pathogens) | > 50 µg/mL | 2 µg/mL (≈ 3.34 µM) | 2 µg/mL (≈ 3.34 µM) | 2 µg/mL (≈ 3.34 µM) | 2 µg/mL (≈ 3.34 µM) |  |  | MIC [11]: 1.1 to 2 µg/mL (≈ 1.83 to 3.34 µM); MIC [12]: 1.1 to 2 µg/mL (≈ 1.83 to 3.34 µM)
COc1ccccc1[C@H](Cn1c(=O)n(C(C)(C)C(N)=O)c(=O)c2c(C)c(-n3cccn3)sc21)OCC(C)C [Compound I-20, (R)-2-(1-(2-isobutoxy-2-(2-methoxyphenyl)ethyl)-5-methyl-2,4-dioxo-6-(1H-pyrazol-1-yl)-1,4-dihydrothieno[2,3-d]pyrimidin-3(2H)-yl)-2-methylpropanamide] | 3 to 10 nM |  |  | 10 µg/mL (≈ 18.5 µM) |  | > 50 µg/mL |  |  |  | > 50 µg/mL |  | > 50 µg/mL |  |  |  | 10 µg/mL (≈ 18.5 µM) |  | 10 µg/mL (≈ 18.5 µM) | > 50 µg/mL | > 50 µg/mL | 

Second part, led by results:

IC50 [9] | MIC [10] | SMILES | IC90 ([1]; Table 4a) | IC90 ([1]; Table 4b) | IC90 ([2]; Table 4a) | IC90 ([2]; Table 4b) | IC90 ([3]; Table 4a) | Concentration at 90% Inhibition Pc ([3]; Table 4b) | IC90 ([4]; Table 4a) | IC90 ([4]; Table 4b) | IC90 ([5]; Table 4a) | IC90 ([5]; Table 4b) | Concentration at 90% Inhibition St ([6]; Table 4b) | IC90 ([6]; Table 4a) | IC90 ([7]; Table 4a) | IC90 ([7]; Table 4b) | IC90 ([8]; Table 4a) | IC90 ([8]; Table 4b) | IC90 ([3]; Table 4b) | IC90 ([6]; Table 4b) | other results
10 to 40 nM |  | COc1ccc(F)cc1[C@H](Cn1c(=O)n(C(C)(C)C(=O)N2CC(O)C2)c(=O)c2c(C)c(-n3cccn3)sc21)OC1CCOCC1 [Compound I-9, (R)-1-(2-(5-fluoro-2-methoxyphenyl)-2-((tetrahydro-2H-pyran-4-yl)oxy)ethyl)-3-(1-(3-hydroxyazetidin-1-yl)-2-methyl-1-oxopropan-2-yl)-5-methyl-6-(1H-pyrazol-1-yl)thieno[2,3-d]pyrimidine-2,4(1H,3H)-dione] |  | > 50 µg/mL |  | > 50 µg/mL |  |  |  | > 50 µg/mL |  | > 50 µg/mL |  |  |  | > 50 µg/mL |  | > 50 µg/mL | > 50 µg/mL | > 50 µg/mL | 
3 to 10 nM |  | COc1ccccc1[C@H](Cn1c(=O)n(C(C)(C)C(N)=O)c(=O)c2c(C)c(-n3cccn3)sc21)OC1CCOCC1 [Compound I-10, (R)-2-(1-(2-(2-methoxyphenyl)-2-((tetrahydro-2H-pyran-4-yl)oxy)ethyl)-5-methyl-2,4-dioxo-6-(1H-pyrazol-1-yl)-1,4-dihydrothieno[2,3-d]pyrimidin-3(2H)-yl)-2-methylpropanamide] |  | > 50 µg/mL |  | > 50 µg/mL |  |  |  | > 50 µg/mL |  | > 50 µg/mL |  |  |  | > 50 µg/mL |  | 10 µg/mL (≈ 17.6 µM) | > 50 µg/mL | > 50 µg/mL | 
10 to 40 nM |  | COc1ccccc1[C@H](Cn1c(=O)n(C(C)(C)C(N)=O)c(=O)c2c(C)c(-n3cccn3)sc21)OC(C)C [Compound I-16, (R)-2-(1-(2-isopropoxy-2-(2-methoxyphenyl)ethyl)-5-methyl-2,4-dioxo-6-(1H-pyrazol-1-yl)-1,4-dihydrothieno[2,3-d]pyrimidin-3(2H)-yl)-2-methylpropanamide] |  | > 50 µg/mL |  | 10 µg/mL (≈ 19 µM) |  |  |  | > 50 µg/mL |  | > 50 µg/mL |  |  |  | > 50 µg/mL |  | > 50 µg/mL | > 50 µg/mL | > 50 µg/mL | 
